Data published in patent EP0424901A1, “Dihydropyridine derivatives and pharmaceutical compositions” (THE GREEN CROSS CORPORATION, priority 1989, dated 1991).
Where a name gives a salt, the structure may show the parent alone. Read-outs that look alike come from different tables or passages of the source.

Test system: male Wistar rats
Experiment: Blood pressure in anesthetized rats after intravenous bolus administration
Format: in vivo
Conditions: tail vein bolus; for ED30: Rattus norvegicus, iv; for DBP % change: diastolic blood pressure relative to that before administration (=100%); for DBP % change / SBP % change: mean ± SE, n=4; for SBP % change: systolic blood pressure relative to that before administration (=100%)
Protocol: The subject rats anesthetized with pentobarbital-Na (50 mg/kg, i.p.) were fixed at the dorsal position, and the blood pressure was successively recorded on a polygraph via polyethylene catheter inserted in left common carotid artery and piezoelectric transducer. The drug was bolus- administered at a dose of 1 ml/kg through a wing needle dwelled in tail vein.
As the subject animal, male Wistar rats (about 300 g body weight, 4 rats per group) were used.
The test drug was prepared by dissolving 10 mg thereof in 0.3 ml of ethanol and 0.1 ml of Tween 80 and diluting with saline.

[1] = estimated dose necessary for 30% reduction of diastolic blood pressure, read-out: DBP ED30
[2] = estimated dose necessary for 30% reduction of systolic blood pressure, read-out: SBP ED30

Row | Structure (SMILES) | ED30 [1] [mg/kg] | ED30 [2] [mg/kg] | DBP % change (dose 30 µg/kg) [%] | DBP % change (dose 100 µg/kg) [%] | DBP % change (dose 300 µg/kg) [%] | SBP % change (dose 30 µg/kg) [%] | SBP % change (dose 100 µg/kg) [%] | SBP % change (dose 300 µg/kg) [%] | DBP % change (dose 1000 µg/kg) [%] | SBP % change (dose 1000 µg/kg) [%] | DBP % change (dose 10 µg/kg) [%] | SBP % change (dose 10 µg/kg) [%]
1 | COC(=O)C1=C(C)NC(C)=C(C(=O)OCCc2ccc(N3CCN(C(c4ccccc4)c4ccccc4)CC3)cc2)C1c1cccc([N+](=O)[O-])c1 (racemic) [compound 3, reference compound] | 0.046 | 0.63 | 75±5 | 61±2 | 53±3 | 79±1 | 76±4 | 72±3 | – | – | – | –
2 | COC(=O)C1=C(C)NC(C)=C(C(=O)OCCc2ccc(N3CCN(C(c4ccccc4)c4ccccc4)CC3)cc2)[C@@H]1c1cccc([N+](=O)[O-])c1 [(R)-(-)-compound 3, (R)-(-)-4-(4-benzhydrylpiperadino)phenetyl methyl 1,4-dihydro-2,6-dimethyl-4-(3-nitrophenyl)-3,5-pyridinedicarboxylate hydrochloride] | – | – | – | 94±1 | – | – | 93±2 | – | 91±2 | 93±3 | – | –
3 | COC(=O)C1=C(C)NC(C)=C(C(=O)OCCc2ccc(N3CCN(C(c4ccccc4)c4ccccc4)CC3)cc2)[C@H]1c1cccc([N+](=O)[O-])c1 [(S)-(+)-compound 3, (S)-(+)-4-(4-benzhydrylpiperadino)phenetyl methyl 1,4-dihydro-2,6-dimethyl-4-(3-nitrophenyl)-3,5-pyridinedicarboxylate hydrochloride] | 0.037 | 0.16 | 74±2 | 55±4 | – | 86±3 | 71±5 | – | – | – | 89±1 | 86±3
